# Reference: patent US6218400A, “Treatment method using a cGMP-Specific PDE inhibitor” (ICOS Corporation, priority 1995, dated 2001)
# Tests used:
# [1] = test system: Rat aortic smooth muscle cells (RSMC); assay: cGMP level measurements in rat aortic smooth muscle cells (RSMC); format: cell-based; details: 10 min, cGMP after ANF (100 nM) stimulation for 10 minutes, dose giving half of the stimulation at saturating concentrations
# Description: Rat aortic smooth muscle cells (RSMC) prepared according to Chamley et al. in Cell Tissue Res. 177, 503-522 (1977) were used between the 10th and 25th passage at confluence in 24-well culture dishes. Culture media was aspirated and replaced with PBS (0.5 ml) containing the compound tested at the appropriate concentration. After 30 minutes at 37° C., particulates guanylate cyclase was stimulated by addition of ANF (100 nM) for 10 minutes. At the end of incubation, the medium was withdrawn and two extractions were performed by addition of 65% ethanol (0.25 ml). The two ethanolic extracts were pooled and evaporated until dryness, using a Speed-vac system. c-GMP was measured after acetylation by scintillation proximity immunoassay ([…]). The EC50 values are expressed as the dose giving half of the stimulation at saturating concentrations
# [2] = test system: conscious spontaneously hypertensive rats (SHRs); assay: Hypotensive effects in conscious spontaneously hypertensive rats; format: in vivo, rat; details: AUC from 0 to 5 hours
# Description: The hypotensive effects of compounds according to the invention as identified in Table 2 were studied in conscious spontaneously hypertensive rats (SHRs). The compounds were administered orally at a dose of 5 or 10 mg/kg in a mixture of 5% DMF and 95% olive oil, or i.v. at a dose of 10 mg/kg in a mixture of 40% dimethylformamide, 25% tetraglycol, and […]. Blood pressure was measured from a catheter inserted in the carotid artery and recorded for 5 hours after administration. The results are expressed as Area Under the Curve (AUC from 0 to 5 hours, mmHg.hour) of the fall in blood pressure over time.
# [3] = biological target: human recombinant PDE V (Homo sapiens, UniProt O76074); assay: Inhibitory effect on cGMP-PDE (one-step assay, human recombinant PDE V); format: biochemical; details: 0.15 μM 8-[H^3]-cGMP, 2% DMSO, 30 minutes
# Description: cGMP-PDE activity of compounds of the present invention was measured using a one-step assay adapted from Wells at al. (Wells, J. N., Baird, C. E., Wu, Y. J. and Hardman, J. G., Biochim. Biophys. Acta 384, 430 (1975)). The reaction medium contained 50 mM Tris-HCl,pH 7.5, 5 mM Mg-acetate, 250 μg/ml 5'-Nucleotidase, 1 mM EGTA and 0.15 μM 8-[H^3 ]-cGMP. The enzyme used was a human recombinant PDE V (ICOS, Seattle USA).
# Compounds of the invention were dissolved in DMSO finally present at 2% in the assay.
EC50 [1],IC50 [3],SMILES,AUC of the fall in blood pressure over time ([2]; dosed at 5 mg/kg p.o.),AUC of the fall in blood pressure over time ([2]; dosed at 10 mg/kg i.v.)
300 nM,< 10 nM,"O=C1[C@H]2Cc3c([nH]c4ccccc34)[C@H](c3ccc4c(c3)OCO4)N2C(=O)N1Cc1ccccc1 (relative stereo) [1 (cis isomer), Cis-2-benzyl-5-(3,4-methylenedioxyphenyl)-5,6,11,11a-tetrahydro-1H-imidazo [1',5':1,6]pyrido[3,4-b]indole-1,3(2H)-dione]",104 mmHg·h,–
200 nM,< 10 nM,"O=C1[C@H]2Cc3c([nH]c4ccccc34)[C@@H](c3ccc4c(c3)OCO4)N2C(=O)N1Cc1ccccc1 [Example 32, (5R,11aR)-2-benzyl-5-(3,4-methylenedioxyphenyl)-5,6,11,11a-tetrahydro-1H-imidazo [1',5':1,6]pyrido[3,4-b]indole-1,3(2H)-dione]",65 mmHg·h,–
< 1000 nM,–,"CCCCN1C(=O)[C@@H]2Cc3c([nH]c4ccccc34)[C@H](c3ccc(OC)cc3)N2C1=O (relative stereo) [Example 10, Trans-2-butyl-5-(4-methoxyphenyl)-5,6,11,11a-tetrahydro-1H-imidazo [1',5':1,6] pyrido[3,4-b]indole-1,3(2H)-dione]",–,147 mmHg·h
300 nM,7 nM,"COc1ccc([C@H]2c3[nH]c4ccccc4c3C[C@@H]3C(=O)N(C4CCCCC4)C(=O)N23)cc1 (relative stereo) [26 (cis isomer), Cis-2-cyclohexyl-5-(4-methoxyphenyl)-5,6,11,11a-tetrahydro-1H-imidazo [1',5':1,6] pyrido[3,4-b]indole-1,3(2H)-dione]",–,117 mmHg·h
